The source of these data is patent US11111245B2, “Derivatives of N-cycloalkyl/heterocycloalkyl-4-(imidazo[1,2-a]pyridine)pyrimidin-2-amine as therapeutic agents” (Aucentra Therapeutics Pty Ltd, priority 2017, dated 2021).

One experiment deals with CDK9/T1 (Homo sapiens, UniProt P50750). The experiment in a line: ADP Glo Kinase assay CDK9/T1. In kind it is biochemical. The following applies: CDK9T1; read-out: CDK inhibition, Ki (μM) CDK9T1. An outline of the steps: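 CDK4/D1 and CDK6/D3 were run in […] Tris pH 7.5, 20 mM MgCl2, 0.4 mM DTT, 0.1 mg/ml BSA with RB-CTF substrate; CDK9/T1 used RBER-IRStide. ATP-started reactions ran 40 min at 37° C, with ADP Glo luminescence read-out. IC50 came from 4-parameter fits; Ki from Km (ATP) and IC50.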
CDK9/T1, sequence (P50750 whole entry): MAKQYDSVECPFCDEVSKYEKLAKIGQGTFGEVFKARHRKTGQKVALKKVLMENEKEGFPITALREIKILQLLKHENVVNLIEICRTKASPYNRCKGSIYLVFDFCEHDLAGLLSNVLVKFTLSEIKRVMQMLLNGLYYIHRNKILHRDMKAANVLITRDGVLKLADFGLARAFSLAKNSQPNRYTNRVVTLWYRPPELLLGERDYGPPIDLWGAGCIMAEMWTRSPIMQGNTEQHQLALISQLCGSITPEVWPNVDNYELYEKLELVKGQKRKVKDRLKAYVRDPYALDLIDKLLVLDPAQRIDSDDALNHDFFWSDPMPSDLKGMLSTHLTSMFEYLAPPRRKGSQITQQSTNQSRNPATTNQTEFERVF
CDK9/T1, sequence (O60563 whole entry partner): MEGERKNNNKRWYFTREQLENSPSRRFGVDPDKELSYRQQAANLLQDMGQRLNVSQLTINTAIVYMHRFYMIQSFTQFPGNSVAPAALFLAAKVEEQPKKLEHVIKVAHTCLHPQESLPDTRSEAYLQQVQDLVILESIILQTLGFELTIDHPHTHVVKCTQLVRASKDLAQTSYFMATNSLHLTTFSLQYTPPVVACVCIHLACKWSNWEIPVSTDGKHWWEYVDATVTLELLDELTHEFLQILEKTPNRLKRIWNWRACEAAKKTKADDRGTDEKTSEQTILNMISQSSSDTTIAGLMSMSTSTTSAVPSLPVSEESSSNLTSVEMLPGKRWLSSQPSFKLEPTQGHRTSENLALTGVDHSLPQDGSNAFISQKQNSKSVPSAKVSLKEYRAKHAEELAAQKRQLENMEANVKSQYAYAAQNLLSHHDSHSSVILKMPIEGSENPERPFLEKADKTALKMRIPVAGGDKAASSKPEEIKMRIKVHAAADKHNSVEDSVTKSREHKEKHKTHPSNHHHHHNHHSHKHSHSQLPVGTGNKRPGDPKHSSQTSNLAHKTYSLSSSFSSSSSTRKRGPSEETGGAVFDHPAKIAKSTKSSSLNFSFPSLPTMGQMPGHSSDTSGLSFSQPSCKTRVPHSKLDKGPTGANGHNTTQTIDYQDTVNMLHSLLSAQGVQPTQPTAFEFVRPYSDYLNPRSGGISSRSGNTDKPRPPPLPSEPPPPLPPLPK
On the technique in general: ADP-Glo turns the ADP formed in a reaction into a luminescent signal.

Experiment [1] concerns the target T1, CDKs and other kinases (Homo sapiens, UniProt P06493).
T1 construct: other: CDK1B; residual activity (%) at 10 μM CDK1B; compound at 10 μM
In words: Radiometric kinase assay (Eurofins Pharma Discovery or Reaction Biology Corporation Kinase Profiler). The note with it: CDK1B; for remaining activity at 10 µM: compound at 10 μM, read-out: residual activity (%) at 10 μM CDK1B; for Ki: read-out: CDK inhibition, Ki (μM) CDK1B. The experiment is classed as biochemical. In a few lines: (§1)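 Other CDKs and further kinases were profiled externally by radiometric assay. In-house ADP Glo assays covered CDK4/D1 and CDK6/D3 (RB-CTF substrate, pH 7.5 Tris buffer with MgCl2, DTT, BSA) and CDK9/T1 (RBER-IRStide substrate), 40 min at 37° C.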

The target of experiment [2] is T2, CDKs and other kinases (Homo sapiens, UniProt P24941).
T2 construct: other: CDK2A; residual activity (%) at 10 μM CDK2A; compound at 10 μM
Described as above. The experiment is classed as biochemical. The note with it: CDK2A; for remaining activity at 10 µM: compound at 10 μM, read-out: residual activity (%) at 10 μM CDK2A. An outline of the steps:
as §1

In experiment [3] the target is T3, CDKs and other kinases (Homo sapiens, UniProt P50613).
T3 construct: other: CDK7H; residual activity (%) at 10 μM CDK7H; compound at 10 μM
T3 sequence (P50613 whole entry): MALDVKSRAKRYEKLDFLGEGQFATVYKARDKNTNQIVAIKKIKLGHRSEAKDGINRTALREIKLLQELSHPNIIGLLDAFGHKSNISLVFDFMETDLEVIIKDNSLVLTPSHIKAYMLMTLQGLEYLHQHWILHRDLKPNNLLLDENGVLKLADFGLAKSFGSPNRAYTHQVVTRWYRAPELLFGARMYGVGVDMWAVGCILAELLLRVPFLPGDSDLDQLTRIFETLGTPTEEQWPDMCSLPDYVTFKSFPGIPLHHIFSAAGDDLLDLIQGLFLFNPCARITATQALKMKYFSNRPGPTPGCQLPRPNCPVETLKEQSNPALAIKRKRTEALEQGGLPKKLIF
The experiment is described as above. The experiment is classed as biochemical. The following applies: CDK7H; for remaining activity at 10 µM: compound at 10 μM, read-out: residual activity (%) at 10 μM CDK7H. In a few lines:
as §1

The next experiment has as its target CDK4/D1 (Homo sapiens, UniProt P11802). The experiment in a line: ADP Glo Kinase assay CDK4/D1. The note with it: CDK4D1; for remaining activity at 10 µM: compound at 10 μM, read-out: residual activity (%) at 10 μM CDK4D1. In kind it is biochemical. In a few lines: as §1
A further experiment deals with CDK6/D3 (Homo sapiens, UniProt Q00534). The experiment in a line: ADP Glo Kinase assay CDK6/D3. In kind it is biochemical. The following applies: CDK6D3; for remaining activity at 10 µM: compound at 10 μM, read-out: residual activity (%) at 10 μM CDK6D3. How it is done:
Eurofins Pharma Discovery or Reaction Biology Corporation Kinase Profiler services were used to measure inhibition of CDKs and other kinases by radiometric assay. Inhibition of CDK4/D1, CDK6/D3 and CDK9/T1 were also determined in-house using ADP Glo Kinase assays (Promega Corporation, Madison, USA). Briefly, the kinase reaction for CDK4/D1 and CDK6/D3 was performed with kinase reaction buffer ([…] Tris base pH 7.5, 20 mM MgCl2, 0.4 mM DTT), 0.1 mg/ml BSA and RB-CTF substrate (retinoblastoma protein 1 C-terminal fraction). For CDK9/CyclinT1, the kinase reaction was performed with standard assay buffer and Kinase Dilution Buffer and RBER-IRStide substrate. Serial dilutions of 1:3 were prepared for test compounds for 10 concentrations (from 10 μM to 0.5 nM). The kinase reactions were started by addition of ATP, incubated for 40 min at 37° C. and then stopped by adding 10 μL of ADP Glo reagent. After incubation at room temperature in the dark for 40 min, 20 μL of kinase detection reagent was added per well and incubated for 40 min. Luminescence was measured using an EnVision Multilabel plate reader (PerkinElmer, Buckinghamshire, UK). Positive and negative controls were performed in the presence and absence of CDK kinases, respectively. Half-maximal inhibition (IC50) values were calculated using a 4-parameter logistic non-linear regression model with Graphpad prism (Version 6.0). Apparent inhibition constants (Ki) values were calculated from Km (ATP) and IC50 values for the respective kinases.

Another experiment has as its system leukemia cell lines. The experiment in a line: Resazurin cell viability assay on leukemia cell lines (72 h growth inhibition, GI50). The note with it: Homo sapiens, MV4-11 cells. The experiment is classed as cell-based. How it is done:
Compounds from Example 1 were subjected to a standard MTT (3-(4,5-dimethylthiazol-2-yl)-2,5-diphenyltetrazolium bromide) and resazurin assays on solid tumour cell lines and leukemia cell lines, respectively, as previously reported (Wang S et al., J Med Chem 47:1662-1675, 2004 and Diab S. et al. CheMedChem 9:962-972, 2014). Compound concentrations required to inhibit 50% of cell growth (GI50) were calculated using non-linear regression analysis.
(In general: Alamar Blue is a resazurin reagent that responds to reducing activity.)

A value given as a limit tells only on which side of the number the result lay.

CDK4/D1, sequence (P11802 whole entry): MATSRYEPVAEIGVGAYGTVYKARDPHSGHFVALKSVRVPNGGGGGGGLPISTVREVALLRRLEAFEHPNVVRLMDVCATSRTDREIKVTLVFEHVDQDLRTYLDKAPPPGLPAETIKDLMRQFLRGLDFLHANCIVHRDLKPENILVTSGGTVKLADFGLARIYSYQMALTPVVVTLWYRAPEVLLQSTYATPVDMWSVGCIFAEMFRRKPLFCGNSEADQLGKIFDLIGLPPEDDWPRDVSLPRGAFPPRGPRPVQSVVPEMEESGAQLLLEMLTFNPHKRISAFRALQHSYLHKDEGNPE
CDK4/D1, sequence (P24385 whole entry partner): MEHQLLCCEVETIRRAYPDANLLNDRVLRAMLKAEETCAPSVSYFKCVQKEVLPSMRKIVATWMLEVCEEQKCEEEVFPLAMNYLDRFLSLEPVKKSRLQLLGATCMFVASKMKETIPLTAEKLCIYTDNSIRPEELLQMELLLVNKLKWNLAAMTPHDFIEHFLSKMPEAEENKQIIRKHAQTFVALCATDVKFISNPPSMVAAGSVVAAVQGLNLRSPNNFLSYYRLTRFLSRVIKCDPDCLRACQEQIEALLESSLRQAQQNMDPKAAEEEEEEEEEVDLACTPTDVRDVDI
CDK6/D3, sequence (Q00534 whole entry): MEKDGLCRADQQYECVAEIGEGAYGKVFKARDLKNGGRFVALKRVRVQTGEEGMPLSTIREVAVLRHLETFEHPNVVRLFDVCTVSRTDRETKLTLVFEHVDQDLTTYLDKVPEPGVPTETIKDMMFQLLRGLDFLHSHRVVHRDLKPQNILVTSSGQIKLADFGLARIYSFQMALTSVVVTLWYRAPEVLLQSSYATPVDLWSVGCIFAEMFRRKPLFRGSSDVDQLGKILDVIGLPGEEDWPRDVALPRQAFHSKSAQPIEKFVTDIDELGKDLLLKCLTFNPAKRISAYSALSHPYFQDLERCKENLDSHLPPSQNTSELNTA
CDK6/D3, sequence (P30281 whole entry partner): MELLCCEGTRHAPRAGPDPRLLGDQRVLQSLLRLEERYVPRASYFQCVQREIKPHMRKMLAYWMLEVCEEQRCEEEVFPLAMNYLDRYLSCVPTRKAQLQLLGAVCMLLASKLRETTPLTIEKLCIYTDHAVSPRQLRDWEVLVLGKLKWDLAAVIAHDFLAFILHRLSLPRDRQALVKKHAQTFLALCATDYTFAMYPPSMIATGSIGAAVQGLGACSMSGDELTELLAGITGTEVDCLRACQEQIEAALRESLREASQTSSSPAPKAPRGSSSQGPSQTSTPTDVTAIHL
T1 sequence (P06493 whole entry): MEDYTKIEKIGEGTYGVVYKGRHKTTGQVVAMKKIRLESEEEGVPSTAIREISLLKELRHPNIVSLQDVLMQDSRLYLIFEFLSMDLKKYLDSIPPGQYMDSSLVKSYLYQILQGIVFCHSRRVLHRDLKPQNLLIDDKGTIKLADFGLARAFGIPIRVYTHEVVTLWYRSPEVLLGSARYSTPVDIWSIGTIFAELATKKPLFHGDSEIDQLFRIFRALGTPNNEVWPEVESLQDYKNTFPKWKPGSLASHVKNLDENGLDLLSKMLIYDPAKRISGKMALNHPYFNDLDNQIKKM

As usually defined, the Ki is a measure of affinity in units of concentration, obtained from inhibition or displacement. Take `N[C@H]1CC[C@H](Nc2ncc(F)c(-c3cnc4ccc(Nc5cccnc5)cn34)n2)CC1` [Compound 49, (1r,4r)-N^1-(5-Fluoro-4-(6-(pyridin-3-ylamino)imidazo [1,2-a]pyridin-3-yl)pyrimidin-2-yl)cyclohexane-1,4-diamine]: on CDK9/T1, the Ki was 0.003 µM. Besides, the remaining activity at 10 µM is 1% at CDKs and other kinases [1]; 0% on CDKs and other kinases [2]; 3% at CDKs and other kinases [3]; 0% on CDK4/D1; 5% at CDK6/D3.
Turning to `N[C@H]1CC[C@H](Nc2ncc(F)c(-c3cnc4ccc(Nc5cncnc5)cn34)n2)CC1` [Compound 50, (1r,4r)-N^1-(5-Fluoro-4-(6-(pyrimidin-5-ylamino)imidazo [1,2-a]pyridin-3-yl)pyrimidin-2-yl)cyclohexane-1,4-diamine], at CDK9/T1, the Ki was found to be 0.003 µM. For the same compound, the remaining activity at 10 µM came to 1% at CDKs and other kinases [1]; 0% at CDKs and other kinases [2]; 4% on CDKs and other kinases [3]; 14% on CDK4/D1; 4% at CDK6/D3.
For `Cc1cnc(N[C@H]2CC[C@H](N)CC2)nc1-c1cnc2cc(Nc3cncnc3)ccn12` [Compound 56, (1r,4r)-N^1-(5-Methyl-4-(7-(pyrimidin-5-ylamino)imidazo [1,2-a]pyridin-3-yl)pyrimidin-2-yl)cyclohexane-1,4-diamine], the inhibition constant (Ki) on CDK9/T1 was 0.051 µM. The remaining activity at 10 µM on CDKs and other kinases [1] was found to be 39%; on CDKs and other kinases [2] it was 12%; on CDKs and other kinases [3], 22%; at CDK4/D1 it was 0%; on CDK6/D3, 5%.
As usually defined, the residual activity is the signal under treatment as a percentage of the control signal. Regarding `Cc1cnc(N[C@H]2CC[C@H](N)CC2)nc1-c1cnc2ccc(Nc3cncc(C(F)(F)F)c3)cn12` [Compound 65, (1r,4r)-N^1-(5-Methyl-4-(6-((5-(trifluoromethyl)pyridin-3-yl)amino)imidazo[1,2-a]pyridin-3-yl)pyrimidin-2-yl) cyclohexane-1,4-diamine], the inhibition constant (Ki) on CDK9/T1 was found to be 0.024 µM. For the same compound, the remaining activity at 10 µM on CDKs and other kinases [1] came out at 32%; at CDKs and other kinases [2], 12%; on CDKs and other kinases [3] it was 31%; at CDK6/D3, 24%. The residual activity at 10 µM on CDK4/D1 worked out at 125%.
For the compound `Cc1cnc(N[C@H]2CC[C@H](N)CC2)nc1-c1cnc2ccc(Nc3cncc(F)c3)cn12` [Compound 66, (1r,4r)-N^1-(4-(6-((5-Fluoropyridin-3-yl)amino)imidazo [1,2-a]pyridin-3-yl)-5-methylpyrimidin-2-yl)cyclohexane-1,4-diamine], the Ki was 0.007 µM on CDK9/T1; 1.26 µM at CDKs and other kinases [1]; 0.18 µM at CDKs and other kinases [2] (read-out: CDK inhibition, Ki (μM) CDK2A); 3.25 µM at CDKs and other kinases [3] (read-out: CDK inhibition, Ki (μM) CDK7H); 0.76 µM at CDK4/D1 (read-out: CDK inhibition, Ki (μM) CDK4D1); 0.33 µM on CDK6/D3 (read-out: CDK inhibition, Ki (μM) CDK6D3).
The GI50 is the concentration at which growth is held to half of that of the control. The low end stands for greater sensitivity of the cells, the high end for lower sensitivity of the cells. Turning to `Cc1cnc(N[C@H]2CC[C@H](C)CC2)nc1-c1cnc2ccc(Nc3cncnc3)cn12` [Compound 152, 3-(5-Methyl-2-(((1r,4r)-4-methylcyclohexyl)amino)pyrimidin-4-yl)-N-(pyrimidin-5-yl)imidazo[1,2-a]pyridin-6-amine], the Ki at CDK9/T1 was 0.181 µM. Also, in the experiment on leukemia cell lines, halving of growth (GI50) required 2.86 ± 0.29 µM. Moreover, the remaining activity at 10 µM was 34% on CDKs and other kinases [1]; 5% on CDKs and other kinases [2]; 55% on CDKs and other kinases [3]; 20% at CDK4/D1.
For the compound `Cc1cnc(N[C@H]2CC[C@H](NCC(N)=O)CC2)nc1-c1cnc2ccc(Nc3cncnc3)cn12` [Compound 153, 2-(((1r,4r)-4-((5-Methyl-4-(6-(pyrimidin-5-ylamino)imidazo[1,2-a]pyridin-3-yl)pyrimidin-2-yl)amino)cyclohexyl)amino)acetamide], the inhibition constant (Ki) is 0.01 µM on CDK9/T1; 0.632 µM at CDKs and other kinases [1]. Besides, in the experiment with leukemia cell lines, the GI50 came to 9.32 ± 0.73 µM. Moreover, the remaining activity at 10 µM on CDKs and other kinases [2] worked out at 14%; at CDKs and other kinases [3], 49%; on CDK4/D1 it was 0%.
`Cc1cnc(N[C@H]2CC[C@H](N(CC(N)=O)CC(N)=O)CC2)nc1-c1cnc2ccc(Nc3cncnc3)cn12` [Compound 154, 2,2′-(((1r,4r)-4-((5-Methyl-4-(6-(pyrimidin-5-ylamino)imidazo[1,2-a]pyridin-3-yl)pyrimidin-2-yl)amino)cyclohexyl)azanediyl)diacetamide]: the inhibition constant (Ki) at CDK9/T1 is 0.022 µM. This compound had a GI50 with leukemia cell lines of over 10 µM. For the same compound, the remaining activity at 10 µM at CDKs and other kinases [1] amounted to 14%; at CDKs and other kinases [2] it was 7%; on CDKs and other kinases [3], 37%; on CDK4/D1 it was 3%.
As for `Cc1cnc(NC2CCC(F)(F)CC2)nc1-c1cnc2ccc(-c3ccccc3)cn12` [Compound 155, N-(4,4-Difluorocyclohexyl)-5-methyl-4-(6-phenylimidazo [1,2-a]pyridin-3-yl)pyrimidin-2-amine], the Ki at CDK9/T1 was over 5 µM. The 50% growth inhibitory concentration (GI50) in the experiment on leukemia cell lines stood at 7 ± 2.03 µM. Besides, the remaining activity at 10 µM on CDKs and other kinases [1] came to 100%; at CDKs and other kinases [2], 100%; on CDKs and other kinases [3], 99%; on CDK4/D1, 96%.
As for `Cc1cnc(NC2CCC(F)(F)CC2)nc1-c1cnc2ccccn12` [Compound 156, N-(4,4-Difluorocyclohexyl)-4-(imidazo[1,2-a]pyridin-3-yl)-5-methylpyrimidin-2-amine], at CDK9/T1, the Ki is over 5 µM. The compound further registered a concentration for 50% growth inhibition (GI50) in the experiment with leukemia cell lines of 3.3 ± 0.31 µM. The remaining activity at 10 µM on CDKs and other kinases [1] stood at 77%; on CDKs and other kinases [2], 34%; on CDKs and other kinases [3] it was 80%; at CDK4/D1, 51%.
For `COC(=O)[C@H]1CC[C@H](Nc2ncc(C)c(-c3cnc4ccc(Nc5cncnc5)cn34)n2)CC1` [Compound 157, Methyl (1r,4r)-4-((5-methyl-4-(6-(pyrimidin-5-ylamino)imidazo[1,2-a]pyridin-3-yl)pyrimidin-2-yl)amino) cyclohexane-1-carboxylate], the Ki at CDK9/T1 is 0.527 µM. In the experiment on leukemia cell lines, it took 2.4 ± 0.09 µM to inhibit growth by half (GI50). Moreover, the remaining activity at 10 µM on CDKs and other kinases [1] was determined as 69%; at CDKs and other kinases [2] it was 38%; at CDKs and other kinases [3] it was 90%; on CDK4/D1, 32%.
For the compound `Cc1cnc(N[C@H]2CC[C@H](C(=O)O)CC2)nc1-c1cnc2ccc(Nc3cncnc3)cn12` [Compound 158, (1r,4r)-4-((5-Methyl-4-(6-(pyrimidin-5-ylamino)imidazo [1,2-a]pyridin-3-yl)pyrimidin-2-yl)amino)cyclohexane-1-carboxylic acid], the inhibition constant (Ki) at CDK9/T1 was 0.185 µM. Besides, the GI50 in the experiment on leukemia cell lines is over 10 µM. Also, the remaining activity at 10 µM at CDKs and other kinases [1] is 94%; on CDKs and other kinases [2], 85%; on CDKs and other kinases [3] it was 98%; on CDK4/D1, 92%.
